Our source for the IC50 and inhibition values is ChEMBL document CHEMBL2434821, “New phenstatin-fatty acid conjugates: synthesis and evaluation” (Bioorg Med Chem Lett, 2013).

The structures appear in SMILES notation. The source made the active and inactive calls. The calls are words filed in the database; no cut-off is given here.

A short description of test [1]: Cytotoxicity against human H460 cells after 72 hrs by MTT assay. The test is classed as functional, cell-based. Particulars: NCI-H460, 72 h. (Formazan colour is commonly taken as a measure of viable cells.)
Test [2] can be described thus: Cytotoxicity against human KB-3-1 cells after 72 hrs by MTT assay. It counts as functional, cell-based. As to conditions: KB 3-1, 72 h.
The subject of test [3] is HEK293. Description: Cytotoxicity against human HEK293 cells after 72 hrs by MTT assay. It counts as functional, cell-based. Particulars: HEK293, 72 h.
The test system of test [4] is MCF7. Description: Cytotoxicity against human MCF7 cells after 72 hrs by MTT assay. It counts as functional, cell-based. As to conditions: MCF7, 72 h.
For test [5], the system named is HEK293. Nature of the test: Cytotoxicity against human HEK293 cells assessed as inhibition of cell survival at 0.5 uM after 72 hrs by MTT assay relative to control. As to conditions: HEK293, 72 h. The test is classed as functional.
A short description of test [6]: Cytotoxicity against human H460 cells assessed as inhibition of cell survival at 0.5 uM after 72 hrs by MTT assay relative to control. The test is classed as functional. Particulars: NCI-H460, 72 h.
The test system of test [7] is MCF7. Description: Cytotoxicity against human MCF7 cells assessed as inhibition of cell survival at 0.5 uM after 72 hrs by MTT assay relative to control. It counts as functional. Particulars: MCF7, 72 h.
Another test has as its system KB 3-1. Description: Cytotoxicity against human KB-3-1 cells assessed as inhibition of cell survival at 5 to 15 uM after 72 hrs by MTT assay relative to control. The test is classed as functional, cell-based.
In the next test the test system is NCI-H460. Description: Cytotoxicity against human H460 cells assessed as inhibition of cell survival at 5 to 15 uM after 72 hrs by MTT assay relative to control. It counts as functional, cell-based.
Test [8] concerns HEK293. Description: Cytotoxicity against human HEK293 cells assessed as inhibition of cell survival at 5 to 15 uM after 72 hrs by MTT assay relative to control. It counts as functional, cell-based.
Test [9] deals with MCF7. Nature of the test: Cytotoxicity against human MCF7 cells assessed as inhibition of cell survival at 5 to 15 uM after 72 hrs by MTT assay relative to control. It counts as functional, cell-based.

A word on the IC50: it is the concentration needed to halve the response being measured. The low end stands for inhibition by little substance, the high end for a need for much substance. `CCCCCCCCCCCCCCCCCC(=O)Oc1cc(C(=O)c2cc(OC)c(OC)c(OC)c2)ccc1OC`: the IC50 in test [1] is 4700 nM; in [2], 2780 nM; in the test with HEK293 [3] it was 2640 nM; with MCF7 [4], 3350 nM.
In the case of `CCCCCCCC/C=C\CCCCCCCC(=O)Oc1cc(C(=O)c2cc(OC)c(OC)c(OC)c2)ccc1OC`, the IC50 in [1] is 909 nM; in test [2], 786 nM; in the test on HEK293 [3], 950 nM; with MCF7 [4], 943 nM.
As to `COc1cc2c(c(OC)c1OC)-c1ccc(OC)c(=O)cc1[C@@H](NC(C)=O)CC2` [COLCHICINE], the IC50 in test [2] worked out at 18 nM; in the test with HEK293 [3], 9 nM; in the test with MCF7 [4], 19 nM.
Turning to `COc1ccc(C(=O)c2cc(OC)c(OC)c(OC)c2)cc1O` [PHENSTATIN], the IC50 in test [1] is 20 nM; in test [2] it was 15 nM; with HEK293 [3], 23 nM; in the test on MCF7 [4], 19 nM.
Regarding `CCCCCCCC/C=C\CCCCCCCC(=O)Oc1ccc(C(=O)c2cc(OC)c(OC)c(OC)c2)cc1OC`, the IC50 in [1] was determined as 2200 nM; in test [2], 1720 nM; with HEK293 [3] it was 2360 nM; in the test on MCF7 [4] it was 2170 nM.
For the molecule `CCCCCCCCCCCCCCCCCC(=O)Oc1ccc(C(=O)c2cc(OC)c(OC)c(OC)c2)cc1OC`, the IC50 in test [1] is 17600 nM; in test [2] it was 16900 nM; in the test on HEK293 [3], 15600 nM; with MCF7 [4], 26900 nM.
A word on the inhibition: it is the percentage by which the read-out fell short of the control. Take `CCCCC/C=C\C/C=C\CCCCCCCC(=O)Oc1cc(C(=O)c2cc(OC)c(OC)c(OC)c2)ccc1OC`: the inhibition at 0.5 µM (in the test on HEK293 [5]; in test [6]; in the test with MCF7 [7]) was 20% each time. For the same molecule, the half-inhibitory concentration (IC50) in test [1] was determined as 176 nM; in test [2], 163 nM; in the test on HEK293 [3], 210 nM; with MCF7 [4] it was 181 nM.
`COc1cc(C(=O)c2cc(OC)c(OC)c(OC)c2)ccc1O` [ISOPHENSTATIN]: the half-maximal inhibitory concentration (IC50) worked out at 188 nM in test [1], 146 nM in [2], 196 nM in the test with HEK293 [3] and 199 nM with MCF7 [4].
On to `CCCCC/C=C\C/C=C\CCCCCCCC(=O)Oc1ccc(C(=O)c2cc(OC)c(OC)c(OC)c2)cc1OC`, for which the concentration for half-maximal inhibition (IC50) came to 867 nM in [1], 547 nM in test [2], 903 nM in the test on HEK293 [3] and 745 nM in the test on MCF7 [4]. In addition, the inhibition entry in the test on KB 3-1, in the test with NCI-H460, with HEK293 [8] and in the test on MCF7 [9] was “Active” throughout.
